“Also recorded” adds a separate entry of the source. Structures can show the parent of a compound that is named as a salt. Where two headings read alike, the source gives them in different places.
Assays:
WI-38 cells = test: Effect of tamoxifen on replication of SN-38-treated normal WI-38 cells; format: cell-based, human; conditions: WI-38 (non-tumor) pretreated with tamoxifen prior to and during SN-38 exposure
hamsters = test: Tamoxifen pre- and co-treatment of CPT-11-treated hamsters: weight loss and survival; format: in vivo, hamster
hamster colon = test: Tamoxifen pre- and co-treatment of CPT-11-treated hamsters: colon morphology and function; format: in vivo; conditions: tamoxifen pre- and co-treatment with CPT-11
[1] = system: MCF-7 breast cancer cells; conditions: tamoxifen, Otto et al. 1996, cited from earlier work
cyclin D1/cdk4 = conditions: thought to be the mechanism; Watts et al. 1995; cited from earlier work
HT-29 cells [2] = test: Growth inhibition of human colon adenocarcinoma HT-29 cells; format: cell-based
HT-29 cells [3] = test: Flow cytometric cell cycle arrest and apoptosis in HT-29 cells; format: cell-based, human
p53 [4] = test: Western immunoblot: p53 level in HT-29 cells; format: cell-based, human; conditions: HT-29, mutant (inactive) p53, Western immunoblot
PCNA [5] = test: PCNA level in HT-29 cells; format: cell-based, human
p21 [6] = test: p21 detection in HT-29 cells; format: cell-based, human
[7] = system: WI-38 normal human diploid lung fibroblasts; test: Growth inhibition of WI-38 normal human diploid lung fibroblasts; format: cell-based; conditions: WI-38 fibroblasts
[8] = system: WI-38 normal human diploid lung fibroblasts; test: Flow cytometry cell cycle arrest, apoptosis and recovery in WI-38 fibroblasts; format: cell-based
p53 [9] = test: p53 level in WI-38 fibroblasts; format: cell-based, human; conditions: WI-38, IC90 of SN-38 (40 nM)
PCNA [10] = test: PCNA level in WI-38 fibroblasts; format: cell-based, human; conditions: WI-38, IC90 of SN-38 (40 nM)
p21 [11] = test: p21 level in WI-38 fibroblasts; format: cell-based, human; conditions: WI-38, following p53 and PCNA increase
HT-29 cells [12] = conditions: HT-29 human adenocarcinoma cells; Bacon et al. 1996 abstract; cited from earlier work
[13] = system: WI-38 normal human diploid lung fibroblasts; conditions: normal WI-38 human fibroblasts; cited from earlier work
humans = conditions: loperamide, aggressive high-dose co-therapy, 2 hr intervals at onset of diarrhea; cited from earlier work
beta-glucuronidase = conditions: cited from earlier work
intestinal epithelium [14] = conditions: hamster, in vivo
[15] = system: proliferating cell nuclear antigen (PCNA); conditions: hamster, in vivo
cancer patients = conditions: cited from earlier work
intestinal epithelium [16] = test: Irinotecan toxicity in the Syrian hamster: intestinal epithelium, diarrhea, weight loss
[17] = system: proliferating cell nuclear antigen (PCNA); test: Western immunoblot and immunohistochemistry for PCNA in irinotecan-treated hamster intestinal epithelium; conditions: Western immunoblot
cells = conditions: droloxifene, Hasmann et al. 1994; cited from earlier work

## CC/C(=C(\c1ccccc1)c1ccc(OCCN(C)C)cc1)c1ccccc1 [tamoxifen]
WI-38 cells
  recovery of replication after SN-38: regained replication kinetics to a greater extent; also recorded: enhances the recovery of a non-tumor cell line from SN-38-induced inhibition
hamsters; tamoxifen pre- and co-treatment
  weight loss associated with CPT-11 administration: reduced; also recorded: reduces weight loss attributable to diarrhea
hamsters; tamoxifen pre- and co-treatment with CPT-11
  survival: survival increased
Hamster colon
  morphology and function of the colon: improvement in morphology and function of the hamster colon; also recorded: reduces the colonic pathology and physiological effects
[1]
  cell cycle block: blocks cell cycle progression in G0 /G1
[1]; listed as Tamoxifen
  cell cycle block: block in the G0 /G1 phase of the cell cycle
Cyclin D1/cdk4
  repression of G1-specific protein kinase activity: repression of G1 -specific protein kinase activity

## CCc1c2c(nc3ccc(O)cc13)-c1cc3c(c(=O)n1C2)COC(=O)[C@]3(O)CC [SN-38]
HT-29 cells [2]
  IC90: 10 nM
HT-29 cells [2]; SN-38 10 nM
  inhibition at 0.01 µM: > 90%
HT-29 cells [3]; HT-29, after arrest
  apoptosis / recovery from arrest: cells did not recover but instead underwent programmed cell death (apoptosis)
HT-29 cells [3]; HT-29, growth-arrested cells
  cell cycle arrest (flow cytometry): replication was blocked in the G2 phase of the cell cycle
p53 [4]
  levels of p53: upregulated
PCNA [5]
  PCNA levels: increased
p21 [6]
  p21: p21 is not upregulated; we have been unable to detect p21
[7]
  IC90: 40 nM
[8]; WI-38, IC90 of SN-38 (40 nM)
  apoptosis: did not undergo apoptosis
  cell cycle arrest (flow cytometry): arrested in the S phase of the cell cycle
[8]; WI-38, when drug was removed
  re-entry into the cell cycle: slowly re-entered the cell cycle when drug was removed
p53 [9]
  levels of p53 (wild type): increased
PCNA [10]
  PCNA levels: increased along with PCNA
p21 [11]
  p21: followed by increases in p21
HT-29 cells [12]
  cell cycle arrest and apoptosis: arrest in G2 /M followed by apoptosis
[13]
  cell cycle arrest: arrested in S/G2

## CN(C)C(=O)C(CCN1CCC(O)(c2ccc(Cl)cc2)CC1)(c1ccccc1)c1ccccc1 [loperamide]
humans
  control of diarrhea: successful in most cases

## O=C(O)[C@H]1O[C@@H](Oc2cc3oc(-c4ccccc4)cc(=O)c3c(O)c2O)[C@H](O)[C@@H](O)[C@@H]1O [Baicalin, baicalin]
beta-glucuronidase
  inhibition of beta-glucuronidase (presumed anti-diarrheal mechanism): has similar activity

## CCc1c2c(nc3ccc(OC(=O)N4CCC(N5CCCCC5)CC4)cc13)-c1cc3c(c(=O)n1C2)COC(=O)[C@]3(O)CC [irinotecan, irinotecan hydrochloride]
Intestinal epithelium [14]
  colon epithelium histology: thinned and vacuolated
  crypt cell replication (bromodeoxyuridine labelling): reduction in crypt cell replication
  diarrhea and weight loss: coincident with diarrhea and weight loss
  structural integrity of the mucosal epithelium: time-dependent loss of structural integrity of the mucosal epithelium in the jejunum and ileum; villi appeared corrugated and epithelial cells lost their typical columnar morphology
  water and electrolyte loss: increased water and electrolyte loss
[15]
  PCNA elevation (Western immunoblot): time-dependent elevation in proliferating cell nuclear antigen (PCNA)
  PCNA immunohistochemistry: increase in the number of labelled epithelial cells and labelling intensity in treated animals, with labelled cells positionally located farther towards the villus tip compared to controls
Cancer patients; cancer patients
  major dose-limiting toxicity: severe delayed chronic grade 3-4 diarrhea
Cancer patients; humans, CAMPTOSAR Injection
  intestinal toxicity (diarrhea): potentially life-threatening intestinal toxicity (diarrhea)
Cancer patients; variety of tumor types
  antitumor activity: activity against a variety of tumor types, and in particular refractory colorectal tumors
Intestinal epithelium [16]; coincident with onset of delayed diarrhea
  toxicity to the intestinal epithelium: considerable toxicity to the intestinal epithelium
Intestinal epithelium [16]; histology
  crypts / epithelial cells: apparent reduction of crypts and/or a loss of epithelial cells
[17]
  time of detection of PCNA elevation: 1 days

## CC/C(=C(/c1ccc(OCCN(C)C)cc1)c1cccc(O)c1)c1ccccc1 [droloxifene]
cells
  cell cycle block: block cells in the G1 phase of the cell cycle in a manner similar to tamoxifen

From patent US6087377A (priority 1999, dated 2000)
